Data: patent US20050220715A1, “Methods and compositions for improving drug safety” (Lotus Pharmaceutical Co., Ltd., priority 2004, published 2005)

How the values were obtained:
pregnancy [1] = settings: RU-486 at 50 mg or 10 mg; cited from earlier work
pregnancy [2] = settings: cited from earlier work
menstrual cycle = settings: RU-486 given late in the follicular phase; cited from earlier work
[3] = RU-486 and emetine composition pharmacokinetics study (RU-486 blood concentrations by HPLC); assay type: in vivo; settings: human, plasma, po, one tablet (10 mg RU-486) orally, eight subjects per group
Description: Experiment 4: RU-486 and Emetine Composition Pharmacokinetics Studies
The studies were carried out with two test groups in parallel. The first group used the composite tablets according to preparation I described below (10 mg RU-486 and 8.4 mg emetine). The control group used tablets containing only 10 mg RU-486. The two types of tablets were similarly prepared, and they had the same appearance. A total of sixteen test subjects were involved, eight in each group. Each test subject was given one pill and blood samples were collected at 0, 0.33, 0.5, 0.75, 1, 1.5, 2, 3, 4, 6, 8, 12, 24, 48, 72, 96, and 120 hours for the determination of RU-486 concentrations in order to calculate Cmax, Tmax, AUC0-120, AUC0-∞, and T1/2 pharmacokinetics parameters.
Experiment 5: Analysis of Pharmacokinetics Samples
RU-486 blood concentration determinations: The analysis used calibrated HPLC. Calibration was performed for a concentration range from 5 to 5000 ng/ml. The internal standard for the analysis was metoclopramide, at 20 ng/ml, 400 ng/ml, and 4000 ng/ml as quality control. The lowest detectable concentration (LOQ) is 5 ng/ml.
Plasma sample preparation: Plasma (0.2 ml) was placed in a test tube, to which metoclopramide (25 μL; 7.5 ng/μL) was added as internal standard, followed by 50 μL of 0.2 M K2HPO4. The mixture was mixed by shaking for 30 seconds. Then, 3 ml of tert-butyl methyl ether was added as the extraction reagent. The mixture was mixed by shaking for 60 seconds before centrifuged at 3,000 rpm for 5 minutes. The upper clear solution was removed and placed into another test tube. This clear solution was dry with a stream of N2. To the dried residue, 200 μL of mobile phase was added. The tube was shaken for 60 seconds. Each injection used 30 μL of sample.

Tmax [3]: 0.91 ± 0.19 h
AUC(0-t) ([3]; read-out: AUC0-120 of RU-486): 8720 ± 1470 ng·h/mL
AUC(0-inf) ([3]; read-out: AUC0-∞ of RU-486): 9420 ± 1550 ng·h/mL
half-life ([3]; read-out: T1/2 of RU-486 (converted)): 35.2 ± 2.86 h
SMILES: CC#C[C@]1(O)CC[C@H]2[C@@H]3CCC4=CC(=O)CCC4=C3[C@@H](c3ccc(N(C)C)cc3)C[C@@]21C [Mifepristone, 17β-hydroxy-11β-(4-dimethylaminophenyl)-17α-(1-propynyl)-estra-4,9-dien-3-one]
morning after pregnancy prevention effect (pregnancy [1]): same effect as 500 mg
result with abortion (pregnancy [2]; 200 mg or 150 mg of RU-486): good results with abortion
success rate of early termination of pregnancy (pregnancy [2]; 600 mg RU-486 and 400 mg misprostol, within the first 49 days of pregnancy): 97%
prolongation of the follicular phase (menstrual cycle): 10 to 15 days
